Where two headings read alike, the source gives them in different places.
How the values were obtained:
Experiment in all cases: In vitro high-throughput screen of FDA-approved drug library (CellTiter-Glo)
Assay type in all cases: cell-based
Hs 919.T. = conditions: for inhibition at 1 µM: read-out: % Inhibition Hs 919.T.
Experimental: (§1) We screened, in parallel to the three computational approaches, an FDA-approved drug library containing 2,316 drugs (1,536 unique chemical entities). […] The drug screening study protocol employed is summarized in Supplementary Table S1.
(§2) Cells were grown to 80–90% confluence, harvested and aliquoted into 384-well plates (black μClear microplates, Greiner bio-one, Germany) at concentrations of 750–1,500 cells per well in a total volume of 25 μl/well using a Matrix Wellmate (Thermo Scientific). Cells were cultured for 72 hours in a 5% CO2 atmosphere at 37°C. Aliquots of 25 μl CellTiter-Glo® Reagent (Promega) were added directly to each well, the plates were incubated at room temperature for 20 min and the luminescence signal was measured according to the manufacturer's protocol. The measurements were made using Infinite® M200 Pro plate reader (Tecan, Switzerland). […] Data were normalized to percentage inhibition. […]
(§3) (A) Color scale for drug inhibition values. […]

SK-ES-1 = conditions: for inhibition at 1 µM: Homo sapiens, read-out: % Inhibition SK-ES-1
Experimental: as §1, §2, §3

A673 = conditions: for inhibition at 1 µM: Homo sapiens, read-out: % Inhibition A673
Experimental: as §1, §2, §3

RD-ES = conditions: for inhibition at 1 µM: RD-ES, read-out: % Inhibition RD-ES
Experimental: as §1, §2, §3

[1] = 1 μmol/L drug, 72 hours, control cell line
[2] = SK-ES1, 1 μmol/L drug, 72 hours

| SMILES | inhibition at 1 µM (Hs 919.T.; [1]) | inhibition at 1 µM (SK-ES-1; [2]) | inhibition at 1 µM (A673; A673, 1 μmol/L drug, 72 hours) | inhibition at 1 µM (RD-ES; 1 μmol/L drug, 72 hours) | other results |
| --- | --- | --- | --- | --- | --- |
| CN(Cc1cnc2nc(N)nc(N)c2n1)c1ccc(C(=O)N[C@@H](CCC(=O)O)C(=O)O)cc1 (racemic) [Methotrexate/Amethopterin (R,S), Methotrexate] | < 50% | < 50% | 89% | 82% | – |
| COc1cc2c3cc1Oc1cc(ccc1O)C[C@@H]1c4c(cc(OC)c(O)c4Oc4ccc(cc4)C[C@@H]3N(C)CC2)CC[N+]1(C)C.Cl.O.O.O.O.O.[Cl-] [(+)-Tubocurarine chloride] | – | – | – | – | % Inhibition Hs 919.T. (Hs 919.T.; [1]): < 50%; % Inhibition SK-ES-1 (SK-ES-1; 1 μmol/L drug, 72 hours): < 50%; % Inhibition A673 (A673; 1 μmol/L drug, 72 hours): < 50%; % Inhibition RD-ES (RD-ES; 1 μmol/L drug, 72 hours): 51% |
| CCCCC/C=C\C/C=C\C/C=C\C/C=C\CCCC(=O)Nc1ccc(O)cc1 [AM 404] | – | – | – | – | % Inhibition Hs 919.T. (Hs 919.T.; [1]): < 50%; % Inhibition SK-ES-1 (SK-ES-1; 1 μmol/L drug, 72 hours): < 50%; % Inhibition A673 (A673; 1 μmol/L drug, 72 hours): 65%; % Inhibition RD-ES (RD-ES; 1 μmol/L drug, 72 hours): < 50% |
| CCCSc1ccc2nc(NC(=O)OC)[nH]c2c1 [Albendazole] | – | – | – | – | inhibition at 1 µM (Hs 919.T.; 72 h): < 50%; inhibition at 1 µM (SK-ES-1; SK-ES1, 72 h): 93%; inhibition at 1 µM (A673; A673, 72 h): 89%; inhibition at 1 µM (RD-ES; 72 h): 93% |
| CCC(C)(C)c1ccc(CC(C)CN2C[C@@H](C)O[C@@H](C)C2)cc1 (stereo partly shown) [Amorolfine] | < 50% | < 50% | 56% | < 50% | – |
| CCCCCC[C@H]1C(=O)O[C@H](C)[C@H](NC(=O)c2cccc(NC=O)c2O)C(=O)O[C@@H](C)[C@@H]1OC(=O)CC(C)C [Antimycin A] | < 50% | < 50% | < 50% | 69% | – |
| C=C1[C@@H]2CC[C@H]3[C@]4(C)C[C@H](O[C@@H]5O[C@H](CO)[C@@H](OS(=O)(=O)[O-])[C@H](OS(=O)(=O)[O-])[C@H]5OC(=O)CC(C)C)C[C@@H](C(=O)O)[C@H]4CC[C@]3(C2)[C@H]1O.[K+].[K+] [Atractyloside potassium salt] | – | – | – | – | % Inhibition Hs 919.T. (Hs 919.T.; [1]): < 50%; % Inhibition SK-ES-1 (SK-ES-1; 1 μmol/L drug, 72 hours): 99%; % Inhibition A673 (A673; 1 μmol/L drug, 72 hours): 99%; % Inhibition RD-ES (RD-ES; 1 μmol/L drug, 72 hours): 98% |
| Nc1nc(O)c2[nH]nnc2n1 [Azaguanine-8] | – | – | – | – | % Inhibition Hs 919.T. (Hs 919.T.; [1]): < 50%; % Inhibition SK-ES-1 (SK-ES-1; 1 μmol/L drug, 72 hours): < 50%; % Inhibition A673 (A673; 1 μmol/L drug, 72 hours): 83%; % Inhibition RD-ES (RD-ES; 1 μmol/L drug, 72 hours): < 50% |
| Cn1cnc([N+](=O)[O-])c1Sc1ncnc2nc[nH]c12 [Azathioprine] | < 50% | 52% | < 50% | < 50% | – |
| CC[C@@]1(O)C(=O)OCc2c1cc1n(c2=O)Cc2cc3ccccc3nc2-1 [Camptothecine (S,+)] | – | – | – | – | % Inhibition Hs 919.T. (Hs 919.T.; [1]): < 50%; % Inhibition SK-ES-1 (SK-ES-1; 1 μmol/L drug, 72 hours): 96%; % Inhibition A673 (A673; 1 μmol/L drug, 72 hours): 99%; % Inhibition RD-ES (RD-ES; 1 μmol/L drug, 72 hours): 97% |
| Nc1nc(Cl)nc2c1ncn2[C@H]1C[C@H](O)[C@@H](CO)O1 [Cladribine] | < 50% | 89% | 87% | 99% | – |
| Nc1nc(Cl)nc2c1ncn2[C@@H]1O[C@H](CO)[C@@H](O)[C@@H]1F [Clofarabine] | < 50% | 98% | 93% | 99% | – |
| N=c1ccn2c(n1)O[C@H]1[C@H](O)[C@@H](CO)O[C@H]12 [Cyclocytidine] | < 50% | 98% | 86% | 83% | – |
| C[C@@H]1C[C@@H]([C@H](O)CC2CC(=O)NC(=O)C2)C(=O)[C@@H](C)C1 [Cycloheximide] | < 50% | 81% | 77% | 74% | – |
| Nc1ccn([C@@H]2O[C@H](CO)[C@@H](O)[C@@H]2O)c(=O)n1 [Cytosine β-D-arabinofuranoside] | – | – | – | – | % Inhibition Hs 919.T. (Hs 919.T.; [1]): < 50%; % Inhibition SK-ES-1 (SK-ES-1; 1 μmol/L drug, 72 hours): 98%; % Inhibition A673 (A673; 1 μmol/L drug, 72 hours): 84%; % Inhibition RD-ES (RD-ES; 1 μmol/L drug, 72 hours): 93% |
| CCN(CC)C(=S)SSC(=S)N(CC)CC [Disulfiram] | < 50% | 95% | 99% | 96% | – |
| O=c1c2ccccc2[se]n1-c1ccccc1 [Ebselen] | < 50% | 96% | 93% | 95% | – |
| C[C@]12CC[C@@H]3c4ccc(O)cc4CC[C@H]3[C@@H]1CC[C@@H]2O [Estradiol] | < 50% | < 50% | 65% | < 50% | – |
| COc1cc([C@@H]2c3cc4c(cc3[C@@H](O[C@@H]3O[C@@H]5CO[C@@H](C)O[C@H]5[C@H](O)[C@H]3O)[C@H]3COC(=O)[C@H]23)OCO4)cc(OC)c1O [Etoposide] | < 50% | 84% | < 50% | 84% | – |

| SMILES | inhibition at 1 µM (Hs 919.T.; [1]) | inhibition at 1 µM (SK-ES-1; [2]) | inhibition at 1 µM (A673; A673, 1 μmol/L drug, 72 hours) | inhibition at 1 µM (RD-ES; 1 μmol/L drug, 72 hours) | other results |
| --- | --- | --- | --- | --- | --- |
| COC(=O)Nc1nc2ccc(Sc3ccccc3)cc2[nH]1 [Fenbendazole] | < 50% | 78% | 75% | 86% | – |
| O=c1[nH]c(=O)n([C@H]2C[C@H](O)[C@@H](CO)O2)cc1F [Floxuridine] | < 50% | 56% | 68% | 92% | – |
| COC(=O)Nc1nc2cc(C(=O)c3ccc(F)cc3)ccc2[nH]1 [Flubendazole] | < 50% | 86% | 77% | 86% | – |
| CCc1c2c(nc3ccc(OC(=O)N4CCC(N5CCCCC5)CC4)cc13)-c1cc3c(c(=O)n1C2)COC(=O)[C@]3(O)CC.Cl [Irinotecan Hydrochloride] | – | – | – | – | % Inhibition Hs 919.T. (Hs 919.T.; [1]): < 50%; % Inhibition SK-ES-1 (SK-ES-1; 1 μmol/L drug, 72 hours): 98%; % Inhibition A673 (A673; 1 μmol/L drug, 72 hours): 83%; % Inhibition RD-ES (RD-ES; 1 μmol/L drug, 72 hours): 99% |
| NNC(=O)c1ccncc1 [Isoniazid] | < 50% | < 50% | 56% | < 50% | – |
| CN(Cc1cnc2nc(N)nc(N)c2n1)c1ccc(C(=O)N[C@@H](CCC(=O)O)C(=O)O)cc1 [L-Glutamic acid, N-[4-[[(2,4-diamino-6-pteridinyl)methyl]methylamino]benzoyl]] | – | – | – | – | % Inhibition Hs 919.T. (Hs 919.T.; [1]): < 50%; % Inhibition SK-ES-1 (SK-ES-1; 1 μmol/L drug, 72 hours): 57%; % Inhibition A673 (A673; 1 μmol/L drug, 72 hours): 85%; % Inhibition RD-ES (RD-ES; 1 μmol/L drug, 72 hours): 77% |
| COC(=O)Nc1nc2ccc(C(=O)c3ccccc3)cc2[nH]1 [Mebendazole] | < 50% | 96% | 94% | 95% | – |
| N[C@@H](Cc1ccc(N(CCCl)CCCl)cc1)C(=O)O [Melphalan] | < 50% | 91% | < 50% | 95% | – |
| S=c1[nH]cnc2nc[nH]c12 [Mercaptopurine] | < 50% | 57% | < 50% | < 50% | – |
| C[C@]12CCC(=O)C=C1CC[C@@H]1[C@@H]2CC[C@@]2(C)[C@H]1CC[C@]2(C)O [Methyltestosterone] | < 50% | < 50% | < 50% | 73% | – |
| COc1c(C)c2c(c(O)c1C/C=C(\C)CCC(=O)O)C(=O)OC2 [Mycophenolic Acid] | < 50% | < 50% | < 50% | 52% | – |
| NC(=O)N/N=C/c1ccc([N+](=O)[O-])o1 [Nitrofural/Nitrofurazone, Nitrofurazone] | < 50% | 72% | 52% | 52% | – |
| CO[C@@H]1[C@@H](OC(N)=O)[C@@H](O)[C@H](Oc2ccc3c(O)c(NC(=O)c4ccc(O)c(CC=C(C)C)c4)c(=O)oc3c2C)OC1(C)C [Novobiocin sodium] | < 50% | < 50% | 60% | 51% | – |
| CCOC(=O)C1=C[C@@H](OC(CC)CC)[C@H](NC(C)=O)[C@@H](N)C1 [Oseltamivir] | < 50% | 98% | 95% | 95% | – |
| CCCOc1ccc2nc(NC(=O)OC)[nH]c2c1 [Oxibendazole] | < 50% | 84% | 64% | 80% | – |
| CC(=O)O[C@H]1C(=O)[C@@]2(C)[C@H]([C@H](OC(=O)c3ccccc3)[C@]3(O)C[C@H](OC(=O)[C@H](O)[C@@H](NC(=O)c4ccccc4)c4ccccc4)C(C)=C1C3(C)C)[C@]1(OC(C)=O)CO[C@@H]1C[C@@H]2O [Paclitaxel/Taxol, Paclitaxel] | < 50% | 96% | 96% | 97% | – |
| Cc1cc(/C=C/c2ccc3cc(N(C)C)ccc3[n+]2C)c(C)n1-c1ccccc1 [Pyrvinium pamoate] | < 50% | 96% | 84% | 98% | – |
| Cc1nc2ccc(CN(C)c3ccc(C(=O)N[C@@H](CCC(=O)O)C(=O)O)s3)cc2c(=O)[nH]1 [Raltitrexed] | < 50% | 51% | 59% | 80% | – |
